Where “and” joins values, the source holds several entries; their conditions need not be identical. Equal values may be shown once.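 Cells were grown in 96-well plates and exposed to each compound for 48 hours at five concentrations; endpoints were interpolated linearly between bracketing concentrations, or set to the highest concentration if not reached. Here, GI50 denotes the concentration required for 50% inhibition of growth.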 Calls of active or inactive are those of the source. Rule as the data show it: active = GI50 up to about 1.1 µM and inactive = higher. Peptide text beside a SMILES is read from it. * marks the point of attachment. Fmoc = O=C(OCC1c2ccccc2-c2ccccc21)*; Boc = CC(C)(C)OC(=O)*; OtBu = CC(C)(C)O*
Tests used:
Test in all cases: DTP human tumour cell line panel, 48 h
[1] = test system: T47D
[2] = test system: DU-145
[3] = test system: MDA-MB-435
[4] = test system: HCC 2998
[5] = test system: PC-3
[6] = test system: A498
[7] = test system: OVCAR-4
[8] = test system: SF-539
[9] = test system: U-251
[10] = test system: NCI-H522
[11] = test system: BT-549
[12] = test system: 786-0
[13] = test system: UACC-62
[14] = test system: TK-10
[15] = test system: OVCAR-8
[16] = test system: NCI-H23
[17] = test system: SK-MEL-5
[18] = test system: SN12C
[19] = test system: OVCAR-3
[20] = test system: OVCAR-5
[21] = test system: SK-MEL-28
[22] = test system: RXF 393
[23] = test system: SF-268
[24] = test system: RPMI-8226
[25] = test system: UACC-257
[26] = test system: M14
[27] = test system: NCI-H460
[28] = test system: LOX IMVI
[29] = test system: SK-OV-3
[30] = test system: Hs-578T
[31] = test system: MDA-MB-231
[32] = test system: SNB-75
[33] = test system: UO-31
[34] = test system: CAKI-1
[35] = test system: SNB-19
[36] = test system: A549
[37] = test system: Malme-3M
[38] = test system: SK-MEL-2
[39] = test system: HOP-92
[40] = test system: HOP-62
[41] = test system: HCT-116
[42] = test system: SW-620
[43] = test system: NCI-H226
[44] = test system: COLO 205
[45] = test system: HT-29
[46] = test system: MDA-N
[47] = test system: IGROV-1
[48] = test system: ACHN
[49] = test system: MCF7
[50] = test system: HCT-15
[51] = test system: SF-295
[52] = test system: KM12
[53] = test system: MOLT-4
[54] = test system: NCI/ADR-RES
[55] = test system: CCRF-CEM
[56] = test system: EKVX
[57] = test system: HL-60
[58] = test system: K562
[59] = test system: SR

Cc1cc(C)c2c(c1)CC1(Cc3ccc(C)c(C)c3C1=O)C2=O (stereo not given) was tested, and the GI50 [1] was > 100 µM (inactive), the GI50 [2] was > 100 µM (inactive) and the GI50 [3] was 2.24 µM (inactive). For the same compound, the GI50 [4] was > 100 µM (inactive), the GI50 [5] was 56.2 µM (inactive) and the GI50 [6] was > 100 µM (inactive). The GI50 [7] was 45.9 µM (inactive), the GI50 [8] was > 100 µM (inactive) and the GI50 [9] was 45.2 µM (inactive). For the same compound, the GI50 [10] was > 100 µM (inactive), the GI50 [11] was > 100 µM (inactive) and the GI50 [12] was > 100 µM (inactive). The GI50 [13] was > 100 µM (inactive), the GI50 [14] was 49.8 µM (inactive) and the GI50 [15] was > 100 µM (inactive). For the same compound, the GI50 [16] was > 100 µM (inactive), the GI50 [17] was > 100 µM (inactive) and the GI50 [18] was > 100 µM (inactive). For the same compound, the GI50 [19] was > 100 µM (inactive), the GI50 [20] was > 100 µM (inactive) and the GI50 [21] was > 100 µM (inactive). For the same compound, the GI50 [22] was 15.8 µM (inactive), the GI50 [23] was > 100 µM (inactive) and the GI50 [24] was > 100 µM (inactive). The GI50 [25] was > 100 µM (inactive), the GI50 [26] was > 100 µM (inactive) and the GI50 [27] was > 100 µM (inactive). The GI50 [28] was > 100 µM (inactive), the GI50 [29] was > 100 µM (inactive) and the GI50 [30] was 11.4 µM (inactive). For the same compound, the GI50 [31] was 6.24 µM (inactive), the GI50 [32] was > 100 µM (inactive) and the GI50 [33] was > 100 µM (inactive). For the same compound, the GI50 [34] was > 100 µM (inactive), the GI50 [35] was > 100 µM (inactive) and the GI50 [36] was > 100 µM (inactive). The GI50 [37] was 3.56 µM (inactive), the GI50 [38] was > 100 µM (inactive) and the GI50 [39] was > 100 µM (inactive).
Cc1cc2c3c(ccc4[nH]cc(c43)CN2c2ccc(NS(C)(=O)=O)cc2)n1 was tested, and the GI50 [40] was 19.6 µM (inactive), the GI50 [2] was 49.1 µM (inactive) and the GI50 [41] was 11.4 µM (inactive). For the same compound, the GI50 [3] was > 100 µM (inactive), the GI50 [4] was 30.2 µM (inactive) and the GI50 [5] was > 100 µM (inactive). The GI50 [6] was 41.4 µM (inactive), the GI50 [7] was > 100 µM (inactive) and the GI50 [9] was 22.5 µM (inactive). The GI50 [42] was > 100 µM (inactive), the GI50 [10] was 5.75 µM (inactive) and the GI50 [11] was 35.5 µM (inactive). The GI50 [12] was 11.4 µM (inactive), the GI50 [13] was > 100 µM (inactive) and the GI50 [43] was 28.3 µM (inactive). For the same compound, the GI50 [44] was > 100 µM (inactive), the GI50 [14] was 26.2 µM (inactive) and the GI50 [15] was 29 µM (inactive). The GI50 [16] was 20.8 µM (inactive), the GI50 [45] was > 100 µM (inactive) and the GI50 [17] was > 100 µM (inactive). For the same compound, the GI50 [46] was > 100 µM (inactive), the GI50 [47] was 48.4 µM (inactive) and the GI50 [19] was 21.2 µM (inactive). The GI50 [48] was 70.3 µM (inactive), the GI50 [20] was > 100 µM (inactive) and the GI50 [49] was 65 µM (inactive). For the same compound, the GI50 [21] was > 100 µM (inactive), the GI50 [50] was > 100 µM and the GI50 [22] was 28.9 µM (inactive). The GI50 [23] was 3.28 µM (inactive), the GI50 [51] was 51.9 µM (inactive) and the GI50 [24] was 13.5 µM (inactive). For the same compound, the GI50 [25] was > 100 µM (inactive), the GI50 [26] was > 100 µM (inactive) and the GI50 [52] was > 100 µM (inactive). For the same compound, the GI50 [27] was 91.6 µM (inactive), the GI50 [28] was > 100 µM (inactive) and the GI50 [29] was 32.3 µM (inactive). For the same compound, the GI50 [30] was > 100 µM (inactive), the GI50 [31] was 22 µM (inactive) and the GI50 [53] was 3.02 µM (inactive). The GI50 [32] was 16.9 µM (inactive), the GI50 [33] was 12.7 µM (inactive) and the GI50 [34] was 25.9 µM (inactive). The GI50 [54] was > 100 µM (inactive), the GI50 [35] was 1.83 µM (inactive) and the GI50 [36] was 25.6 µM (inactive). The GI50 [55] was 8.41 µM (inactive), the GI50 [56] was 26.8 µM (inactive) and the GI50 [38] was 37.7 µM (inactive). For the same compound, the GI50 [39] was 24.5 µM (inactive), the GI50 [57] was 28.1 µM (inactive) and the GI50 [58] was 90.6 µM (inactive).
With CC(C)(C)c1ccc(O)c(C(O)c2ccncc2)c1 (stereo not given) the GI50 [40] was > 100 µM (inactive), the GI50 [1] was 16.9 µM (inactive) and the GI50 [2] was > 100 µM (inactive). For the same compound, the GI50 [41] was > 100 µM (inactive), the GI50 [4] was 39.7 µM (inactive) and the GI50 [8] was > 100 µM (inactive). The GI50 [42] was > 100 µM (inactive), the GI50 [10] was > 100 µM (inactive) and the GI50 [11] was > 100 µM (inactive). The GI50 [12] was > 100 µM (inactive), the GI50 [43] was 72.1 µM (inactive) and the GI50 [44] was > 100 µM (inactive). For the same compound, the GI50 [15] was > 100 µM (inactive), the GI50 [16] was 70.8 µM (inactive) and the GI50 [45] was > 100 µM (inactive). For the same compound, the GI50 [17] was 24.1 µM (inactive), the GI50 [47] was > 100 µM (inactive) and the GI50 [19] was > 100 µM (inactive). The GI50 [48] was 52.4 µM (inactive), the GI50 [20] was 70.8 µM (inactive) and the GI50 [21] was > 100 µM (inactive). The GI50 [50] was 52.4 µM, the GI50 [22] was 45.4 µM (inactive) and the GI50 [23] was > 100 µM (inactive). For the same compound, the GI50 [52] was > 100 µM (inactive), the GI50 [27] was > 100 µM (inactive) and the GI50 [30] was 37.7 µM (inactive). For the same compound, the GI50 [31] was 62.8 µM (inactive), the GI50 [53] was 76.4 µM (inactive) and the GI50 [32] was 68.7 µM (inactive). The GI50 [33] was > 100 µM (inactive), the GI50 [34] was > 100 µM (inactive) and the GI50 [54] was 53 µM (inactive). For the same compound, the GI50 [36] was 83.2 µM (inactive), the GI50 [37] was 62.7 µM (inactive) and the GI50 [55] was > 100 µM (inactive). The GI50 [56] was 44.6 µM (inactive) and the GI50 [58] was 61.4 µM (inactive).
For CC(C)(C)OC(=O)CCC(NC(=O)OCC1c2ccccc2-c2ccccc21)C(=O)NC(Cc1c[nH]c2ccccc12)C(=O)NC(CCCCNC(=O)OC(C)(C)C)C(=O)N1CCCC1C(=O)NCC(N)=O (stereo not given) (Fmoc-E(OtBu)WK(Boc)PG-NH2; configuration not given here), the GI50 [1] was 63.2 µM (inactive) and 52.5 µM (inactive), the GI50 [4] was 66.7 µM (inactive) and 34.8 µM (inactive) and the GI50 [7] was 12.9 µM (inactive) and 17.2 µM (inactive). For the same compound, the GI50 [8] was 35.6 µM (inactive) and 63.7 µM (inactive), the GI50 [9] was 17.3 µM (inactive) and 17.2 µM (inactive) and the GI50 [10] was 1.62 µM (inactive). The GI50 [11] was 16 µM (inactive) and 19.5 µM (inactive), the GI50 [12] was 20.7 µM (inactive) and 17.5 µM (inactive) and the GI50 [13] was 15 µM (inactive) and 17 µM (inactive). The GI50 [15] was 34.6 µM (inactive) and 17.8 µM (inactive), the GI50 [45] was > 100 µM (inactive) and 58.3 µM (inactive) and the GI50 [17] was 32 µM (inactive) and 16.2 µM (inactive). For the same compound, the GI50 [46] was 17.8 µM (inactive) and 25.5 µM (inactive), the GI50 [47] was 31.2 µM (inactive) and 16 µM (inactive) and the GI50 [19] was 19.4 µM (inactive) and 16.8 µM (inactive). For the same compound, the GI50 [48] was 17.7 µM (inactive) and 16.4 µM (inactive), the GI50 [59] was 26.5 µM (inactive) and 41.7 µM (inactive) and the GI50 [49] was 24.9 µM (inactive) and 26.5 µM (inactive). The GI50 [21] was 48.1 µM (inactive) and 43.4 µM (inactive), the GI50 [22] was 22.2 µM (inactive) and 15 µM (inactive) and the GI50 [51] was 34.8 µM (inactive) and 26.2 µM (inactive). The GI50 [24] was 17.4 µM (inactive) and 34.4 µM (inactive), the GI50 [26] was 22.4 µM (inactive) and 39.7 µM (inactive) and the GI50 [27] was 25.9 µM (inactive) and 16.4 µM (inactive). For the same compound, the GI50 [28] was 22.5 µM (inactive) and 12.2 µM (inactive), the GI50 [30] was 17.3 µM (inactive) and 28.4 µM (inactive) and the GI50 [31] was 15.6 µM (inactive) and 12.6 µM (inactive). The GI50 [53] was 28.2 µM (inactive) and 24.4 µM (inactive), the GI50 [32] was 23.3 µM (inactive) and 16 µM (inactive) and the GI50 [35] was 19.6 µM (inactive) and 26.9 µM (inactive). For the same compound, the GI50 [37] was 19.7 µM (inactive) and 31 µM (inactive), the GI50 [38] was 18.2 µM (inactive) and 19.7 µM (inactive) and the GI50 [39] was 18.5 µM (inactive) and 17.6 µM (inactive). The GI50 [58] was 30.1 µM (inactive) and 42.5 µM (inactive).

From ChEMBL document CHEMBL1201862, “PubChem BioAssay data set” (2004)
